Measured values: US10844049B2, “GLP-1R agonists and uses thereof” (QILU REGOR THERAPEUTICS INC., priority 2018, dated 2020)

Experiments:
GLP1R [1] = target: T1, GLP1R (Homo sapiens, UniProt P43220); assay: GLP1R cAMP HTRF assay, HEK293/GLP-1R/CRE/Luc (HEK293T cells); type: cell-based; conditions: read-out: EC50
Outline: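 cAMP accumulation via HTRF after 30 min, 37 °C exposure of 1000 receptor-expressing cells/well to compound (0.5% DMSO final) in IBMX (500 μM)/0.1% BSA DPBS.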

GLP1R [2] = target: T1, GLP1R; assay: β-Arrestin-mediated GLP1R internalization assay (PathHunter engineered U2OS cells); type: cell-based; design: host or cells: PathHunter engineered U2OS cells; conditions: averaged Bmax, percentage of control GLP-1 (7-37), highest concentration tested
Excerpt: A similar assay can also be used to assess the extent of signal attenuation due to GLP-1R internalization (the β-Arrestin Internalization Assay). In this assay, activated GLP1R Internalization cells were engineered to co-express an untagged GLP1R, Enzyme Acceptor (EA) tagged β-Arrestin, and a ProLink™ (PK) tag localized to the endosomes. Activation of the GLP1R induces β-Arrestin recruitment, which leads to internalization of the Receptor/Arrestin-EA complex in PK-tagged endosomes. This forces complementation of the two β-galactosidase enzyme fragments (EA and PK) to form a functional enzyme that hydrolyzes substrate to generate a chemiluminescent signal. These cells have been modified to prevent long term propagation and expansion using a proprietary compound that has no apparent effect on assay performance.
Specifically, PathHunter engineered U2OS cells from the assay kit (Cat #93-0724E3CP0L) were plated at a density of 2000 cells/20 μL/well in a 384-well white/clear bottom plates (Greiner Cat #781098). Frozen cells were quickly thawed and 10 mL of cell plating medium (provided by the kit) was added to thawed cells. Cells were stored in a 37° C. incubator and kept for approximately 48 hours until ready for the assay.
(§1) Reference and test compounds were dissolved in 100% DMSO. 5× concentration of an agonist was prepared in serum free DMEM (Thermo Cat #11965). 5 μL of this solution was added to 20 μL cell medium in assay plate for a final top concentration of 10 μM. Plates were incubated at 37° C. for 180 min.
(§2) Following 180 min incubation, detection reagents were made up by combining 1 part Galacton Star Substrate with 5 parts Emerald II™ Solution, and 19 parts of PathHunter Cell Assay Buffer, respectively. 12.5 μL detection reagent was added to each well. The plates were then incubated at room temperature for 60 min. Plates were then read on Envision for 0.1 sec/well.
(§3) EC50 determinations were made from agonist dose-response curves analyzed with a curve fitting program using a 4-parameter logistic dose response equation.

GLP1R [3] = target: T1, GLP1R; assay: GLP-1R/β-Arrestin recruitment assay (PathHunter eXpress GLP1R CHO-K1 β-Arrestin GPCR Assay); type: cell-based; design: host or cells: PathHunter CHO-K1 GLP1R β-Arrestin cells; conditions: averaged Bmax, percentage of control GLP-1 (7-37), highest concentration tested
Excerpt: GLP-1R agonist activity with respect to β-arrestin recruitment can be determined with a cell-based functional assay using PathHuntcr eXpress GLP1R CHO-K1 β-Arrestin GPCR Assay kit (DiscovcrX Cat #93-0300E2CP0M).
The PathHunter β-Arrestin GPCR assay technology utilizes a β-galactosidase (β-gal) enzyme that is split into two fragments, the smaller Enzyme Donor (ED) and the larger Enzyme Acceptor (EA). These fragments can be fused to two proteins that may interact with each other, such as EA-β-Arrestin and ED-GLP-1R. The fusions can be stably expressed in a test cell line, such as the PathHunter CHO-K1 GLP1R β-Arrestin cells described below.
Independently, these fragment fusions have no β-gal activity; however, in solution or in a living cell, they can be brought together and complement to form an active β-gal enzyme due to the interaction between the fused proteins, thus generating a chemiluminescent signal in the presence of a suitable β-gal substrate.
In this experiment, PathHunter CHO-K1 GLP1R β-Arrestin cells from the assay kit were plated at a density of 1000 or 2000 cells/20 μl/well in a 384-well white/clear bottom plates (Greiner Cat #781098). Frozen cells were quickly thawed and 10 mL of cell plating medium (provided by the kit) was added to thawed cells. Cells were stored in a 37° C. incubator under 5% CO2 and kept for approximately 48 hours until ready to ran the assay.
as §1, with “Plates were then incubated at” for “Plates were incubated at”, “37° C. under 5% CO2 for 90” for “37° C. for 180”, “CO2 for 90 min.” for “C. for 180 min.”
as §2, with “90” for “180”, “temperature in dark” for “temperature”
as §3
Cells were plated at a density of 1000 or 2000 cells/20 μL/well. Frozen cells were quickly thawed and added to 10 mL of cell plating medium. Cells were stored in a 37° C. incubator under 5% CO2 and left for approximately 48 hours until ready to run the assay.
• 1) Reference agonist compound GLP1 (7-37): dissolved with DMSO to make 1 mM stock solutions, aliquoted and stored at −80° C. • 2) Test compounds (such as the compounds of the invention) came solubilized in 100% DMSO.
Prepare 10× concentration of an agonist in serum free DMEM, and add all solutions into the compound plate. 2.5 μL of this solution was added to 20 μL cell medium in assay plate for a final top concentration of 10 μM. Plates were incubated at 37° C. under 5% CO2 for 30 min. An additional 2.5 μL of Buffer was added to the entire plate for agonist mode and incubated at 37° C. for another 90 min.
Following 90 min incubation, detection reagents were made up as described. 12.5 μL was added to all wells. The plates were then incubated at room temperature in dark for 60 min. Plates were then read on Envision for 0.1 sec/well.
Data analysis: GraphPad Prism 6 was used for establishment of progression curve. EC50S or IC50s were determined by 4-parameter logistic dose response equation.

[4] = Monkey oral pharmacokinetic (PK) study, non-naïve Cynomolgus male monkeys; type: in vivo; conditions: Dose 2
Protocol: Appropriate volumes of vehicles (e.g., 2% Tween 80 (v:v) and 0.5% MC (w:v) in saline or 0.5% MC (w:v) in water were then added into the mortar containing the ground compounds, and the mixture was then grinded with a pestle until a homogeneous paste was formed. Additional appropriate volumes of vehicles were added into the mortar containing each compound, and the mixture was grinded further with the pestle until a homogeneous suspension was obtained.
The rest of the vehicle was added to make up the final dosing volume of about 1 mg/mL or 2 mg/mL (i.e., final dosing volume of about 5 mL/kg), and the homogenous suspension was continuously stirred prior to and during the dosing.
Non-naïve Cynomolgus male monkeys (n=3/test article; sourced from Hainan Jingang Biotech Co., Ltd., Nayang Xmtan, Fucheng Town, Qiongshan District, Haikou City, Hainan Province, China); or non-naïve aged, obese, and diabetic male Macaca fascicularis monkeys (n=3/test article, Source: Kunming Biomed International Colony) were used in pre-clinical in vivo studies. All non-naïve Cynomolgus male monkeys were approximately 3 to 5 years old, weighed about 2.5-5 kg, and were within ±20% of the average body weight. All non-naïve aged, obese, and diabetic male Macaca fascicularis monkeys were approximately 12 to 20 years old, weighed about >8-12 kg.
All animals were fasted overnight before dosing, and the food were supplied approximately 4 hours post dose (with free access to water all the time).
Animals were restrained at designated time points for blood sampling. Approximately 500 μL of blood samples was taken via cephalic or saphenous vein into EDTA-K2 tubes. Blood samples were put on wet ice before centrifugation.
For oral administration (PO) of either Dose 1 or Dose 2: blood samples were collected at pre-dose, and at 15 min, 30 min, 1 hr, 2 hr, 4 hr, (6 hr for compounds 19 and 28 with cynomolgus monkeys only), 8 hr, 12 hr, and 24 hr post dose (i.e., 9 or 10 total time points for each compound at each dose).
The blood samples were centrifuged at approximately 2,000-4,000 rpm for about 10-15 minutes at 2-8′C, and each resulting plasma portion was then transferred into an individual tube.
LC-MS/MS methods were developed, and bioanalysis for the test articles in monkey plasma was performed according to the developed LC-MS/MS methods.
Undiluted plasma samples: An aliquot of 20-50 μL plasma sample was mixed with 200 μL of ACN or MeOH containing one of the internal standards (IS, e.g., Diclofenac or Terfenadine). The mixture was then vortexed for about 1-5 min, and centrifuged at about 4,000-5,800 rpm for about 10-15 min. An aliquot of 1 μL supernatant was used for LC-MS/MS analysis.
Pharmacokinetics parameters, including area under the curve (AUC0-t), maximum plasma concentration (Cmax), time to reach maximum plasma concentration (Tmax), oral bioavailability (F %), etc., were calculated using Phoenix software (Version 6.4) and non-compartment model.

[5] = male, cynomolgus monkey, plasma, oral

T1 sequence (P43220 24-463): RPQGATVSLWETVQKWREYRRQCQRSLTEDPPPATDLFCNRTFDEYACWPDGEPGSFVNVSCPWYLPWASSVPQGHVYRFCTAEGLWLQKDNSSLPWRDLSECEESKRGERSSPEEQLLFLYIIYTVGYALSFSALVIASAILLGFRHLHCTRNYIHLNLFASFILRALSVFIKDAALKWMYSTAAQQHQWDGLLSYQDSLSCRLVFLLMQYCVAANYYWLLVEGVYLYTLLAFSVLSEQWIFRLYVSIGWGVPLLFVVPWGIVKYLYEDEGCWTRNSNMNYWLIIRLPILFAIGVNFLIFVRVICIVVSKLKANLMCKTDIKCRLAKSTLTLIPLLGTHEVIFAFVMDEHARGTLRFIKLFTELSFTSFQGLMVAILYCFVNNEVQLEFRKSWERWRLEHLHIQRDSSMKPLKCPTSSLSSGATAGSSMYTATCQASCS

Row | Structure (SMILES) | EC50 (GLP1R [1]) | Bmax (POC) (GLP1R [2]) | Bmax (POC) (GLP1R [3]) | also measured
1 | O=C(O)c1ccc2nc(CN3CC=C(c4cccc(OCc5ccc(C(F)(F)F)cc5)n4)CC3)n(C[C@@H]3CCO3)c2c1 [Compound 46] | ≤ 0.015 µM | 27.4 POC | – | –
2 | N#Cc1ccc(COc2cncc(N3CCN(Cc4nc5ccc(C(=O)O)cc5n4C[C@@H]4CCO4)CC3)n2)c(F)c1 [Compound 12, (S)-2-((4-(6-(4-cyano-2-fluorobenzyloxy)pyrazin-2-yl)piperazin-1-yl)methyl)-1-(oxetan-2-ylmethyl)-1 h-benzo[d]imidazole-6-carboxylic acid] | ≤ 0.015 µM | – | 9.66 POC | –
3 | N#Cc1ccc(COc2nccc(N3CCN(Cc4nc5ccc(C(=O)O)cc5n4C[C@@H]4CCO4)CC3)n2)c(F)c1 [Compound 10, (S)-2-((4-(2-((4-cyano-2-fluorobenzyl)oxy)pyrimidin-4-yl)piperazin-1-yl)methyl)-1-(oxetan-2-ylmethyl)-1H-benzo[d]imidazole-6-carboxylic acid] | ≤ 0.15 µM | – | 4.48 POC | –
4 | O=C(O)c1ccc2nc(CN3CCN(c4ccnc(OCc5ccc(Cl)cc5F)n4)CC3)n(C[C@@H]3CCO3)c2c1 [Compound 9, (S)-2-((4-(2-((4-chloro-2-fluorobenzyl)oxy)pyrimidin-4-yl)piperazin-1-yl)methyl)-1-(oxetan-2-ylmethyl)-1H-benzo[d]imidazole-6-carboxylic acid] | ≤ 0.015 µM | 27.03 POC | – | –
5 | N#Cc1ccc(COc2cccc(C3CCN(Cc4nc5ccc(C(=O)O)cc5n4C[C@@H]4CCO4)CC3)n2)c(F)c1 [Compound 418, reference compound] | – | – | – | Tmax [4, 5]: 1.7 h; bioavailability [4, 5]: 8.17%; AUC0-24 h ([4]; oral): 774 Arbitrary units; Cmax ([4]; oral): 232 Arbitrary unit; drop in plasma concentration ([4]; over about 24 hours post oral dosing): about 10 fold
6 | O=C(O)c1ccc2nc(CN3CCN(c4cncc(OCc5ccc(Cl)cc5F)n4)CC3)n(C[C@@H]3CCO3)c2c1 [Compound 11, (S)-2-((4-(6-(4-chloro-2-fluorobenzyloxy)pyrazin-2-yl)piperazin-1-yl)methyl)-1-(oxetan-2-ylmethyl)-1 h-benzo[d]imidazole-6-carboxylic acid] | ≤ 0.015 µM | – | 7.16 POC | –
7 | Fc1cc(Cl)ccc1COc1cccc(C2=CCN(Cc3nc4ccc(-c5nnn[nH]5)cc4n3C[C@@H]3CCO3)CC2)n1 [Compound 105, (S)-2-((4-(6-(4-chloro-2-fluorobenzyloxy)pyridin-2-yl)-5,6-dihydropyridin-1(2H)-yl)methyl)-1-(oxetan-2-ylmethyl)-6-(1H-tetrazol-5-yl)-1H-benzo[d]imidazole] | ≤ 0.015 µM | 24.2 POC | – | –
8 | O=C(O)c1ccc2nc(CN3CCN(c4cccc(NCc5ccc(Cl)cc5F)n4)CC3)n(C[C@@H]3CCO3)c2c1 [Compound 1, (S)-2-((4-(6-(4-chloro-2-fluorobenzylamino)pyridin-2-yl)piperazin-1-yl)methyl)-1-(oxetan-2-ylmethyl)-1 h-benzo[d]imidazole-6-carboxylic acid] | ≤ 0.015 µM | – | 2.80 POC | –
9 | O=C(O)c1ccc2nc(CN3CC=C(c4cccc(OCc5ccc(C(F)(F)F)nc5)n4)CC3)n(C[C@@H]3CCO3)c2c1 [Compound 45, (S)-1-(oxetan-2-ylmethyl)-2-((4-(6-((6-(trifluoromethyl)pyridin-3-yl)methoxy)pyridin-2-yl)-5,6-dihydropyridin-1(2H)-yl)methyl)-1 h-benzo[d]imidazole-6-carboxylic acid] | ≤ 0.015 µM | 19.1 POC | – | –
10 | CS(=O)(=O)NC(=O)c1ccc2nc(CN3CC=C(c4cccc(OCc5ccc(Cl)cc5F)n4)CC3)n(C[C@@H]3CCO3)c2c1 [Compound 47, (S)-2-((4-(6-(4-chloro-2-fluorobenzyloxy)pyridin-2-yl)-5,6-dihydropyridin-1(2H)-yl)methyl)-N-(methylsulfonyl)-1-(oxetan-2-ylmethyl)-1 h-benzo[d]imidazole-6-carboxamide] | ≤ 0.015 µM | 22.8 POC | – | –
